# Test results reported in publication PMC12056667 (Chemical Science, 2025).
# Values joined by “and” are separate entries in the source; they are usually repeats but may differ in a detail not shown here. Equal entries are not always repeated. Where two headings read alike, the source gives them in different places.
# Key:
# [1] = biological target: Tet(X4) (Escherichia coli, UniProt A0A3T0V9Y5); assay: FP competitive displacement of probe 6; assay type: binding; conditions: IC50app, 25 nM 6, 40 nM Tet(X4), 5 mM MgCl2, 1 μM FAD, 100 mM Tris pH 7.0, 0.01% Triton X-100
# Procedure: A 2× solution containing 80 nM Tet(X4), 2 μM FAD and 10 mM MgCl2 in the assay buffer was dispensed into the first 22 columns of a 384-well black, non-binding microtiter plate (Greiner Bio-One), 12.5 μL per well, using a microplate reagent dispenser. A solution of 2 μM FAD and 10 mM MgCl2 in the assay buffer was dispensed into the remaining columns to serve as a no enzyme control. A 3-fold, 10-point dilution series of substrates and inhibitors was made in DMSO in a V-bottom 96-well plate (Greiner Bio-One) with a highest concentration of 5 mM or 0.5 mM. Into one column was added DMSO with no inhibitor or substrate, to serve as a positive control. Tigecycline was included as a reference on every plate to ensure reproducibility. 0.5 μL of each dilution was transferred in quadruplicate to the 384-well plate containing enzyme solution using a CyBi-Well liquid-handling robot (CyBio). A solution of 50 nM 6 in the assay buffer was then dispensed, with 12.5 μL per well. The plate was briefly centrifuged (1000 rpm), then incubated at ambient temperature for 30 min prior to measuring the FP. Data points were normalised between the positive and negative controls. Normalised % response was plotted as a function of log10([Inhibitor]), and the IC50^app was determined by fitting the data to the equation: Y = Bottom + (top-bottom)/(1 + 10^Log(IC50) − X) × HillSlope in GraphPad Prism 9.4.1, where Y = % response and X = log10([Inhibitor]). Wells with unusual fluorescence intensities were manually identified and removed from the analysis. […]
# [2] = test system: E. coli TOP10 containing plasmid pBAD-TOPO-Tet(X4); assay: Broth microdilution MIC and checkerboard assay; assay type: cell-based, Escherichia coli; conditions: for Antibiotic MIC / Tet(X) inhibitor MIC: alone; for MIC: Escherichia coli; for Combination (antibiotic/inhibitor) MIC: inhibitor: inhibitor in combination with tigecycline; for Combination (antibiotic/inhibitor) MIC: inhibitor / Combination (antibiotic/inhibitor) MIC: antibiotic: lowest FICI; for Combination (antibiotic/inhibitor) MIC: antibiotic: tigecycline in combination with the inhibitor; for FICI / Outcome: with tigecycline
# Source text: Tet(X4) was sub-cloned from the Tet(X4) pET28b-(+) expression vector via TOPO cloning. The insert was amplified using the taq polymerase with the forward primer 5′- […]-3′ and the reverse primer 5′- […]-3’. Following PCR purification (Thermo Fisher Scientific), the A-tailed PCR product was ligated into the pBAD-TOPO vector using a TOPO cloning kit (Invitrogen) according to the manufacturer's protocol. Following amplification in E. coli NEB5α cells (NEBiolabs), the fidelity of the insert was confirmed by Sanger sequencing (Eurofins). For microbiological experiments, E. coli TOP10 cells were used as the recipient strain. Cells were plated on Mueller-Hinton agar (MHA) plates containing ampicillin at 100 μg mL^−1. The introduction of pBAD-TOPO-Tet(X4) was confirmed by colony PCR. Strains were stored in a freezer at −80 °C in cryopreservation beads.
# (§1) MIC tests and checkerboard assays were performed in U-bottom, 96-well microtiter plates using a modified broth microdilution protocol following CLSI guidelines. Cation-adjusted Mueller-Hinton Broth (CAMHB) was prepared fresh on the day of testing.[74] […] Bacterial colonies were selected from an overnight culture on MHA plates (supplemented with 0.2%w/vL-arabinose for E. coli TOP10 containing pBAD-TOPO-Tet(X4)) and were suspended in 0.9% saline solution to achieve a 0.5 McFarland standard. A 100 μL aliquot of this suspension was then diluted into 9.9 mL of CAMHB to yield approximately 1.5 × 10^6 cfu mL^−1. 50 μL of the suspension was then added to each well of a microtiter plates. Plates were incubated at 37 °C for 18 h. At least 2 replicates were conducted for each combination. E. coli TOP10 + pBAD-TOPO-Tet(X4) cells were grown in the absence and presence of 0.2%w/vL-arabinose. Analysis of the MIC and checkerboard results were carried out by visual inspection of growth, with and without resazurin dye, an oxidation–reduction indicator.[75] As a measure of synergy, fractional inhibitory concentration index (FICI) was calculated as FICA + FICB, where FICA and FICB are the MICcombination/MICalone for each agent, respectively.[76] Results were interpreted as follows: synergistic (<0.5), indifferent (1.0–4.0) or antagonistic (>4.0).[64] In cases where the MIC exceeded or was below the measured range, the borderline value was taken to calculate the FIC index.
# [3] = test system: Acinetobacter spp. NT3-1 – tet(X3); assay: microbe, parasite or virus in culture; assay type: cell-based; conditions: for Antibiotic MIC: alone
# Procedure: (§2) MIC tests and checkerboard assays were performed in U-bottom, 96-well microtiter plates using a modified broth microdilution protocol following CLSI guidelines. Cation-adjusted Mueller-Hinton Broth (CAMHB) was prepared fresh on the day of testing.[74] In brief, assays were set up in a total volume of 100 μL per well and titrations comprised seven 2-fold dilutions of inhibitors and ten 2-fold dilutions of tigecycline in CAMHB. Bacterial colonies were selected from an overnight culture on MHA plates (supplemented with 0.2%w/vL-arabinose for E. coli TOP10 containing pBAD-TOPO-Tet(X4)) and were suspended in 0.9% saline solution to achieve a 0.5 McFarland standard. A 100 μL aliquot of this suspension was then diluted into 9.9 mL of CAMHB to yield approximately 1.5 × 10^6 cfu mL^−1. 50 μL of the suspension was then added to each well of a microtiter plates. Plates were incubated at 37 °C for 18 h. At least 2 replicates were conducted for each combination. E. coli TOP10 + pBAD-TOPO-Tet(X4) cells were grown in the absence and presence of 0.2%w/vL-arabinose. Analysis of the MIC and checkerboard results were carried out by visual inspection of growth, with and without resazurin dye, an oxidation–reduction indicator.[75] As a measure of synergy, fractional inhibitory concentration index (FICI) was calculated as FICA + FICB, where FICA and FICB are the MICcombination/MICalone for each agent, respectively.[76] Results were interpreted as follows: synergistic (<0.5), indifferent (1.0–4.0) or antagonistic (>4.0).[64] In cases where the MIC exceeded or was below the measured range, the borderline value was taken to calculate the FIC index.
# [4] = test system: Salmonella enterica T-2a – tet(X4); assay: microbe, parasite or virus in culture; assay type: cell-based; conditions: for Antibiotic MIC: alone, S. enterica T-2a
# Procedure: as §2
# [5] = test system: Acinetobacter baumannii NT5-1 – tet(X5); assay: microbe, parasite or virus in culture; assay type: cell-based; conditions: for Antibiotic MIC: alone, A. baumannii NT5-1
# Procedure: as §1
# [6] = test system: Escherichia coli T-24a – tet(X4); assay: microbe, parasite or virus in culture; assay type: cell-based; conditions: for Antibiotic MIC: alone
# Procedure: as §1
# [7] = test system: Proteus penneri NT6-2 – tet(X6); assay: microbe, parasite or virus in culture; assay type: cell-based; conditions: for Antibiotic MIC: alone, P. penneri NT6-2
# Procedure: as §1
# [8] = induced with 0.2%w/v L-arabinose
# [9] = inhibitor in combination with tigecycline, lowest FICI
# [10] = tigecycline in combination with the inhibitor, lowest FICI
compound,measurement,setting,value
C[C@H]1c2cccc(O)c2C(=O)C2=C(O)[C@]3(O)C(=O)C(C(N)=O)=C(O)[C@@H](N(C)C)[C@@H]3[C@@H](O)[C@@H]21 [Doxycycline],IC50,[1]; FP assay,1580 ± 150 nM
same,Antibiotic MIC,[2]; 0.2%w/v L-arabinose (Table S7),32 µg/mL
same,Antibiotic MIC,[2]; without L-arabinose induction,1 µg/mL
same,Antibiotic MIC,[3]; Acinetobacter spp. NT3-1,8 µg/mL
same,Antibiotic MIC,[4],32 µg/mL
same,Antibiotic MIC,[5],32 µg/mL
same,Antibiotic MIC,[6]; E. coli T-24a,32 µg/mL
same,Antibiotic MIC,[7],16 µg/mL
CN1CCN(CCCN2c3ccccc3Sc3ccc(Cl)cc32)CC1 [Prochlorperazine],MIC,"[2]; read-out: Tet(X) Inhibitor MIC, alone, without L-arabinose induction",64 µg/mL
same,Tet(X) inhibitor MIC,[2]; [8],64 µg/mL
same,Tet(X) inhibitor MIC,"[2]; induced with 0.2%w/v L-arabinose, listed as prochlorperazine",16 to 64 µg/mL
same,reduction of the tigecycline MIC,"[2]; at high concentrations of inhibitor, 0.2%w/v L-arabinose",2–4 fold
same,Combination (antibiotic/inhibitor) MIC: inhibitor,[2]; 0.2%w/v L-arabinose,16 µg/mL
same,Combination (antibiotic/inhibitor) MIC: inhibitor,[2]; without L-arabinose,32 µg/mL
same,Combination (antibiotic/inhibitor) MIC: antibiotic,[2]; 0.2%w/v L-arabinose,2 µg/mL
same,Combination (antibiotic/inhibitor) MIC: antibiotic,[2]; without L-arabinose,0.13 µg/mL
same,FICI,[2]; 0.2%w/v L-arabinose,0.8
same,Outcome,[2]; 0.2%w/v L-arabinose,Indifferent (indifferent (0.5–4.0))
same,FICI,"[2]; 0.2%w/v L-arabinose, listed as prochlorperazine",0.5-1
same,FICI,[2]; without L-arabinose,1
same,Outcome,[2]; without L-arabinose,indifferent (indifferent (0.5-4.0))
same,MIC,"[3]; Acinetobacter, read-out: Tet(X) Inhibitor MIC, alone, Acinetobacter spp. NT3-1",8 µg/mL
same,Combination (Antibiotic/Inhibitor) MICs: inhibitor,[3]; [9],8 µg/mL
same,Combination (Antibiotic/Inhibitor) MICs: antibiotic,[3]; [10],4 µg/mL
same,FICI,[3]; with tigecycline,2
same,Outcome,[3]; with tigecycline,indifferent (indifferent (0.5-4.0))
same,MIC,"[4]; Salmonella enterica, read-out: Tet(X) Inhibitor MIC",> 128 µg/mL
same,Combination (Antibiotic/Inhibitor) MICs: inhibitor,[4]; [9],64 µg/mL
same,Combination (Antibiotic/Inhibitor) MICs: antibiotic,[4]; [10],16 µg/mL
same,FICI,[4]; with tigecycline,1
same,Outcome,[4]; with tigecycline,indifferent (indifferent (0.5-4.0))
same,MIC,"[5]; Acinetobacter baumannii, read-out: Tet(X) Inhibitor MIC",128 µg/mL
same,Combination (Antibiotic/Inhibitor) MICs: inhibitor,[5]; [9],64 µg/mL
same,Combination (Antibiotic/Inhibitor) MICs: antibiotic,[5]; [10],1 µg/mL
same,FICI,[5]; with tigecycline,0.6
same,Outcome,[5]; with tigecycline,indifferent (indifferent (0.5-4.0))
same,MIC,"[6]; Escherichia coli, read-out: Tet(X) Inhibitor MIC, alone, E. coli T-24a",256 µg/mL
same,Combination (Antibiotic/Inhibitor) MICs: inhibitor,[6]; [9],32 µg/mL
same,Combination (Antibiotic/Inhibitor) MICs: antibiotic,[6]; [10],8 µg/mL
same,FICI,[6]; with tigecycline,0.6
same,Outcome,[6]; with tigecycline,indifferent (indifferent (0.5-4.0))
same,MIC,"[7]; Proteus penneri, read-out: Tet(X) Inhibitor MIC",> 128 µg/mL
same,Combination (Antibiotic/Inhibitor) MICs: inhibitor,[7]; [9],128 µg/mL
same,Combination (Antibiotic/Inhibitor) MICs: antibiotic,[7]; [10],4 µg/mL
same,FICI,[7]; with tigecycline,2
same,Outcome,[7]; with tigecycline,indifferent (indifferent (0.5-4.0))
CN(C)c1cc(NC(=O)CNC(C)(C)C)c(O)c2c1C[C@H]1C[C@H]3[C@H](N(C)C)C(O)=C(C(N)=O)C(=O)[C@@]3(O)C(O)=C1C2=O [Tigecycline],IC50,[1]; FP assay,18.6 ± 4.9 nM
same,IC50,[1]; Tet(X4) (Polarization),22 nM and 19 nM
same,MIC,"[2]; read-out: Tigecycline MIC, L-arabinose 0 %w/v",0.25 µg/mL
same,MIC,"[2]; read-out: Tigecycline MIC, L-arabinose 0.0002 %w/v",0.25 µg/mL
same,MIC,"[2]; read-out: Tigecycline MIC, L-arabinose 0.002 %w/v",0.5 µg/mL
same,MIC,"[2]; read-out: Tigecycline MIC, L-arabinose 0.02 %w/v",2 µg/mL
same,MIC,"[2]; read-out: Tigecycline MIC, L-arabinose 0.2 %w/v",8 µg/mL
same,MIC,"[2]; read-out: Tigecycline MIC, L-arabinose 0.4 %w/v",8 µg/mL
same,Antibiotic MIC,[2]; [8],4 µg/mL
same,Antibiotic MIC,[2]; without L-arabinose induction,0.25 µg/mL
same,Antibiotic MIC,[3]; Acinetobacter spp. NT3-1,4 µg/mL
same,Antibiotic MIC,[4],32 µg/mL
same,Antibiotic MIC,[5],8 µg/mL
same,Antibiotic MIC,[6]; E. coli T-24a,16 µg/mL
same,Antibiotic MIC,[7],8 µg/mL
